Data reported in patent US9452119B2, “Nitrone compounds and their use in personal care” (Dow Global Technologies LLC, priority 2011, dated 2016).

Key:
[1] = Oxygen Radical Absorbance Capacity (ORAC) antioxidant potential; parameters: unit not given here; details: calculated from ORAC values (AUC minus blank); Trolox as internal control
Procedure: Antioxidant potential is evaluated using the Oxygen Radical Absorbance Capacity (ORAC) protocol. ORAC is a chemical in-vitro method based on the hydrogen atom transfer (HAT) mechanism. ORAC measures antioxidant inhibition of peroxyl radical induced oxidations and thus reflects classical radical chain breaking antioxidant activity by H atom transfer. In this assay, the peroxyl radical reacts with a fluorescent probe to form a non-fluorescent product. This is quantitated using a fluorescence measurement. Antioxidant capacity is determined by decreased rate and amount of product formed over time. This assay depends upon the free radical damage to the fluorescent probe resulting in the change in its fluorescence intensity. The change of fluorescence intensity is an indicator of the degree of free radical damage. In the presence of an antioxidant, the inhibition of free radical damage is reflected in higher fluorescence intensity and can be measured as antioxidant capacity against the free radicals. The uniqueness of ORAC assay is that the reaction is driven to completion. This allows calculation of the area under the curve (AUC) and gives an absolute quantitation of antioxidancy as opposed to relative measurements in many other assays.
As noted, the longer it takes to observe a decrease in fluorescence, the higher the antioxidant (AO) potential. From the AUC for a given antioxidant, the AUC for blank is subtracted to give its ORAC value. The concentration of AO needed to give the same AUC values as Trolox is calculated and used to represent the Trolox equivalent AO Capacity (TEAC). Trolox is ((±)-6-Hydroxy-2,5,7,8-tetramethylchromane-2-carboxylic acid, CAS #53188-07-1), and is used as an internal control.
The ORAC test is conducted in the compounds of Examples 1-5 (inventive compounds) as well as to Vitamin C, Vitamin E, and the following comparative compounds:
The TEAC values calculated from the ORAC values are listed the Table 2.

[2] = test system: Type I collagen; assay: AAPH radical induced collagen degradation, SDS-PAGE of remaining γ-chain; assay type: biochemical; details: incubated with AAPH at 50° C. for 90 mins; antioxidants at same concentration; FIG. 1
Procedure: Type I collagen, typically found in abundance in skin, is dissolved in 0.04 M acetic acid, pH 4.3, prior to different treatments. For radical induced collagen degradation, aqueous radical initiator 2,2′-azobis-2-methyl-propanimidamide dihydrochloride (AAPH) is used. The collagen samples are incubated with AAPH in the presence of VAN-IPHA (Example 3), pHBz-IPHA (Example 6), and vitamin E (comparative) of the same concentration to determine the efficacy of these antioxidants in preventing collagen degradation. After incubation at 50° C. for 90 mins, the collagen samples are analyzed by SDS-PAGE to determine the degree of degradation by the remaining amount of γ-chain, which is a covalently cross-linked trimer for collagen.

[3] = test system: collagen; assay: UVA-induced collagen degradation, SDS-PAGE / densitometry of collagen γ-bands; assay type: biochemical; details: antioxidant at 238 μM, UVA irradiation, FIG. 3
Procedure: FIG. 3 is a densitometry plot of collagen γ-bands on SDS-PAGE of samples containing antioxidant at concentration of 238 μM.
In addition to the oxidative stress due to radical and ROS generation, oxidative damage to collagen can also be induced by UVA irradiation. Similar to the radical-induced collagen degradation, the effect of UVA in collagen degradation is mitigated by the presence of nitrones.
Similar to the prevention of radical-induced degradation, better efficacy in the inhibitory effect of preventing UVA-induced degradation is also observed for VAN-IPHA (FIG. 3). In this analysis, the effects of VAN-IPHA and pHBz-IPHA are compared to a highly efficacious antioxidant, Resveratrol. […] The stability of nitrones of the invention provide an advantageous alternative solution for antioxidant needs in cosmetic applications, such as anti-aging.

Molecule	TEAC (Trolox equivalent AO Capacity) [1]	extent of collagen degradation (remaining γ-chain) [2]	inhibitory effect of preventing UVA-induced collagen degradation [3]	melting point [°C]
Cc1cc(C(C)(C)C)c(O)c(C(C)(C)C)c1 [BHT, reference compound]	0.11-0.21	–	–	–
Cc1cc(/C=[N+](\[O-])C(C)C)cc(C)c1O [DMHBz-IPHA, (Z)-N-(4-hydroxy-3,5-dimethylbenzylidene)propan-2-amine oxide]	1.56	–	–	–
CC(C)(C)/[N+]([O-])=C/c1ccccc1 [PBN, reference compound]	0.04	–	–	–
CC(C)/[N+]([O-])=C/c1ccccc1O [SAL-IPHA, (Z)-N-(2-hydroxybenzylidene)propan-2-amine oxide]	3.02	–	–	–
CCCC/C=[N+](\[O-])C(C)C [VAL-IPHA, reference compound]	0.18	–	–	–
COc1cc(/C=[N+](\[O-])C(C)C)ccc1O [VAN-IPHA, (Z)-N-(4-hydroxy-3-methoxybenzylidene)propan-2-amine oxide]	5.41	significantly less	better efficacy than Resveratrol	178 to 180
COc1cc(/C=[N+](\[O-])C(C)(C)C)ccc1O [VAN-tBHA, (Z)-N-(4-hydroxy-3-methoxybenzylidene)-2-methylpropan-2-amine oxide]	4.42	–	–	–
O=C1O[C@H]([C@@H](O)CO)C(O)=C1O [Vitamin C, reference compound]	0.76	–	–	–
CC(C)/[N+]([O-])=C/c1ccc(O)cc1 [pHBz-IPHA, (Z)-N-(4-hydroxybenzylidene)propan-2-amine oxide]	8.67	–	–	217 to 218
Vitamin E [reference compound]	0.13	–	–	–
